# Measurements published in US8501732B2, “Aminomethyl quinolone compounds” (Hoffmann-La Roche Inc., priority 2011, dated 2013).
# Counter-ions that a name gives are not always drawn.
# Target: JNK1 (Homo sapiens (Human), UniProt P45983)
# Test: In Vitro JNK1 Assay (TR-FRET, phosphorylation of GST-c-Jun)
# Assay type: biochemical
# Settings: not given
# Procedure: Phosphorylation of GST-c-Jun protein (amino acid residues 1-79) was measured as JNK1 activity. […] The reaction buffer contained 50 mM HEPES, pH […], 1 mM DTT, 0.1 mM Na3VO4 and 0.2 mg/mL BSA. After 30 min. incubation at room temperature, the reaction was terminated by adding buffer containing 8 mM EDTA and a polyclonal anti-phospho-c-Jun antibody (Cell Signaling #9261L), followed by an additional incubation of 30 min. at room temperature. […] Time-resolved Fluorescence Resonance Energy Transfer (TR-FRET) signals were measured 1 hr. later on the EnVision reader (Perkin Elmer). Compound potency was assessed at 10 serially diluted concentrations. Percentage of inhibition at each concentration was determined to generate an IC50 value for each compound.
# Chain of JNK1 (P45983 whole entry): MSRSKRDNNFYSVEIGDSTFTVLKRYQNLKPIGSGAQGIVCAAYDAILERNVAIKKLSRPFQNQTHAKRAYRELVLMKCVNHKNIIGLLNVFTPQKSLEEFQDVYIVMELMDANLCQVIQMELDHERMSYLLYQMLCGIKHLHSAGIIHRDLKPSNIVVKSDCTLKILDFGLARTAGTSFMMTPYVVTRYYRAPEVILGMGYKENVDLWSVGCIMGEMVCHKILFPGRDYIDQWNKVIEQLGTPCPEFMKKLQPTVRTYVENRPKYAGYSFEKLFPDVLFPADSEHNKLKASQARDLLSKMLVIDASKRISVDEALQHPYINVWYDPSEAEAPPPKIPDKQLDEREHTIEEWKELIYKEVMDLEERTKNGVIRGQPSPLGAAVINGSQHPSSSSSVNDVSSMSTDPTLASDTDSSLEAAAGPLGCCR
row,Compound,IC50 [nM]
1,"O=C(NCc1cn(-c2ccccc2)c2cc(Cl)ccc2c1=O)NC1CCN(C(=O)Oc2ccccc2)CC1 [Example I-193, 4-[3-(7-Chloro-4-oxo-1-phenyl-1,4-dihydro-quinolin-3-ylmethyl)-ureido]-piperidine-yl-carboxylic acid phenyl ester]",180

# Same assay, conditions: 0.2 nM active JNK1 kinase, 26.7 nM GST-c-Jun, 2 μM ATP, 30 min at room temperature
row,Compound,IC50 [nM]
1,"COC(=O)c1c(CNC(=O)C2CCN(S(C)(=O)=O)CC2)c(=O)c2ccc(Cl)cc2n1-c1ccccc1 [Example I-131, 7-Chloro-3-{[(1-methanesulfonyl-piperidine-4-carbonyl)-amino]-methyl}-4-oxo-1-phenyl-1,4-dihydro-quinoline-2-carboxylic acid methyl ester]",640
2,"COC(=O)c1c(CNC(=O)c2ccccn2)c(=O)c2ccc(Cl)cc2n1-c1ccccc1 [Example I-146, 7-Chloro-4-oxo-1-phenyl-3-{[(pyridine-2-carbonyl)-amino]-methyl}-1,4-dihydro-quinoline-2-carboxylic acid methyl ester]",100
3,"COC(=O)c1c(CNC(=O)C(C)C)c(=O)c2ccc(Cl)cc2n1-c1ccccc1 [Example I-147, 7-Chloro-3-(isobutyrylamino-methyl)-4-oxo-1-phenyl-1,4-dihydro-quinoline-2-carboxylic acid methyl ester]",200
4,"COC(=O)c1c(CNC(=O)c2ccccc2Cl)c(=O)c2ccc(Cl)cc2n1-c1ccccc1 [Example I-148, 7-Chloro-3-[(2-chloro-benzoylamino)-methyl]-4-oxo-1-phenyl-1,4-dihydro-quinoline-2-carboxylic acid methyl ester]",430
5,"COC(=O)c1c(CNC(=O)c2ccccc2OC)c(=O)c2ccc(Cl)cc2n1-c1ccccc1 [Example I-149, 7-Chloro-3-[(2-methoxy-benzoylamino)-methyl]-4-oxo-1-phenyl-1,4-dihydro-quinoline-2-carboxylic acid methyl ester]",670
6,"COC(=O)c1c(CNC(=O)c2ccc(N(C)C)cc2)c(=O)c2ccc(OC)cc2n1-c1ccccc1 [Example I-167, 3-[(4-Dimethylamino-benzoylamino)-methyl]-7-methoxy-4-oxo-1-phenyl-1,4-dihydro-quinoline-2-carboxylic acid methyl ester]",180
7,"O=c1c(CNc2cc(N3CCCCC3)ncn2)cn(-c2ccccc2)c2cc(Cl)ccc12 [Example I-173, 7-Chloro-1-phenyl-3-[(6-piperidin-1-yl-pyrimidin-4-ylamino)-methyl]-1H-quinolin-4-one]",140
8,"O=c1c(CNc2ccnc(N3CCCCC3)n2)cn(-c2ccccc2)c2cc(Cl)ccc12 [Example I-174, 7-Chloro-1-phenyl-3-[(2-piperidin-1-yl-pyrimidin-4-ylamino)-methyl]-1H-quinolin-4-one trifluoroacetate salt]",350
9,"O=c1c(CNc2nc3ccccc3s2)cn(-c2ccccc2)c2cc(Cl)ccc12 [Example I-175, 3-(Benzothiazol-2-ylaminomethyl)-7-chloro-1-phenyl-1H-quinolin-4-one]",700
10,"O=c1c(CNc2nc3ccccc3[nH]2)cn(-c2ccccc2)c2cc(Cl)ccc12 [Example I-176, 3-[(1H-Benzoimidazol-2-ylamino)-methyl]-7-chloro-1-phenyl-1H-quinolin-4-one]",850
11,"N#C/N=C(/NCc1cn(-c2ccccc2)c2cc(Cl)ccc2c1=O)N1CCOCC1 [Example I-177, [(7-Chloro-4-oxo-1-phenyl-1,4-dihydro-quinolin-3-ylmethyl)-amino]-morpholin-4-yl-methylene-cyanamide]",1200
12,"N#C/N=C(/NCc1cn(-c2ccccc2)c2cc(Cl)ccc2c1=O)Nc1ccccc1 [Example I-178, [(7-Chloro-4-oxo-1-phenyl-1,4-dihydro-quinolin-3-ylmethyl)-amino]-phenylamino-methylene-cyanamide]",2700
13,"O=C(NCc1cn(-c2ccccc2)c2cc(Cl)ccc2c1=O)Oc1ccccc1 [Example I-179, (7-Chloro-4-oxo-1-phenyl-1,4-dihydro-quinolin-3-ylmethyl)-carbamic acid phenyl ester]",2000
14,"O=C(NCc1cn(-c2ccccc2)c2cc(Cl)ccc2c1=O)N1CCN(c2ccccc2)CC1 [Example I-180, 4-Phenyl-piperazine-1-carboxylic acid (7-chloro-4-oxo-1-phenyl-1,4-dihydro-quinolin-3-ylmethyl)-amide]",120

# Next, values leading:
row,IC50 [nM],Compound
1,200,"CC(C)(C)OC(=O)N[C@H]1CC[C@@H](NC(=O)NCc2cn(-c3ccccc3)c3cc(Cl)ccc3c2=O)CC1 [Example I-181, {4-[3-(7-Chloro-4-oxo-1-phenyl-1,4-dihydro-quinolin-3-ylmethyl)-ureido]-cyclohexyl}-carbamic acid tert-butyl ester]"
2,700,"CC(C)(C)OC(=O)N[C@H]1CC[C@H](NC(=O)NCc2cn(-c3ccccc3)c3cc(Cl)ccc3c2=O)CC1 [Example I-182, {4-[3-(7-Chloro-4-oxo-1-phenyl-1,4-dihydro-quinolin-3-ylmethyl)-ureido]-cyclohexyl}-carbamic acid tert-butyl ester]"
3,910,"CC(C)(C)OC(=O)N1CCC(NC(=O)NCc2cn(-c3ccccc3)c3cc(Cl)ccc3c2=O)C1 (stereo not drawn) [Example I-183, 3-[3-(7-Chloro-4-oxo-1-phenyl-1,4-dihydro-quinolin-3-ylmethyl)-ureido]-pyrrolidine-1-carboxylic acid tert-butyl ester]"
4,920,"O=C(NCc1cn(-c2ccccc2)c2cc(Cl)ccc2c1=O)NC1CCCC1 [Example I-184, 1-(7-Chloro-4-oxo-1-phenyl-1,4-dihydro-quinolin-3-ylmethyl)-3-cyclopentyl-urea]"
5,1100,"COC(=O)[C@H]1CC[C@@H](NC(=O)NCc2cn(-c3ccccc3)c3cc(Cl)ccc3c2=O)CC1 [Example I-185, 4-[3-(7-Chloro-4-oxo-1-phenyl-1,4-dihydro-quinolin-3-ylmethyl)-ureido]-cyclohexanecarboxylic acid methyl ester]"
6,1200,"O=C(NCc1cn(-c2ccccc2)c2cc(Cl)ccc2c1=O)N1CCCC1 [Example I-186, Pyrrolidine-1-carboxylic acid (7-chloro-4-oxo-1-phenyl-1,4-dihydro-quinolin-3-ylmethyl)-amide]"
7,1400,"CN1CCN(C(=O)NCc2cn(-c3ccccc3)c3cc(Cl)ccc3c2=O)CC1 [Example I-187, 4-Methyl-piperazine-1-carboxylic acid (7-chloro-4-oxo-1-phenyl-1,4-dihydro-quinolin-3-ylmethyl)-amide]"
8,1700,"O=C(NCc1cn(-c2ccccc2)c2cc(Cl)ccc2c1=O)N1CCCCC1 [Example I-188, Piperidine-1-carboxylic acid (7-chloro-4-oxo-1-phenyl-1,4-dihydro-quinolin-3-yl-methyl)-amide]"
9,2000,"COC(=O)[C@H]1CC[C@H](NC(=O)NCc2cn(-c3ccccc3)c3cc(Cl)ccc3c2=O)CC1 [Example I-189, 4-[3-(7-Chloro-4-oxo-1-phenyl-1,4-dihydro-quinolin-3-ylmethyl)-ureido]-cyclohexanecarboxylic acid methyl ester]"
10,2100,"O=C(NCc1cn(-c2ccccc2)c2cc(Cl)ccc2c1=O)N1CCC(c2ccccc2)CC1 [Example I-190, 4-Phenyl-piperidine-1-carboxylic acid (7-chloro-4-oxo-1-phenyl-1,4-dihydro-quinolin-3-ylmethyl)-amide]"
11,240,"O=C(NCc1cn(-c2ccccc2)c2cc(Cl)ccc2c1=O)NC1C2CC3CC1CC(O)(C3)C2 (stereo not drawn) [Example I-191, 1-(7-Chloro-4-oxo-1-phenyl-1,4-dihydro-quinolin-3-ylmethyl)-3-(5-hydroxy-adamantan-2-yl)-urea]"
12,60,"CC(C)(C)OC(=O)N1CCC(NC(=O)NCc2cn(-c3ccccc3)c3cc(Cl)ccc3c2=O)CC1 [Example I-192, 4-[3-(7-Chloro-4-oxo-1-phenyl-1,4-dihydro-quinolin-3-ylmethyl)-ureido]-piperidine-1-carboxylic acid tert-butyl ester]"
13,190,"O=C(NCc1cn(-c2ccccc2)c2cc(Cl)ccc2c1=O)NC1CCN(C(=O)c2ccccc2)CC1 [Example I-194, 1-(1-Benzoyl-piperidin-4-yl)-3-(7-chloro-4-oxo-1-phenyl-1,4-dihydro-quinolin-3-yl-methyl)-urea]"
14,580,"O=C(NCc1cn(-c2ccccc2)c2cc(Cl)ccc2c1=O)NC1CCN(C(=O)OCc2ccccc2)CC1 [Example I-195, 4-[3-(7-Chloro-4-oxo-1-phenyl-1,4-dihydro-quinolin-3-ylmethyl)-ureido]-piperidine-1-carboxylic acid benzyl ester]"
15,1100,"O=C(NCc1cn(-c2ccccc2)c2cc(Cl)ccc2c1=O)NC1CCN(S(=O)(=O)c2ccccc2)CC1 [Example I-196, 1-(7-Chloro-4-oxo-1-phenyl-1,4-dihydro-quinolin-3-ylmethyl)-3-(1-phenylsulfonyl-piperidin-4-yl)-urea]"
16,2100,"CS(=O)(=O)N1CCC(NC(=O)NCc2cn(-c3ccccc3)c3cc(Cl)ccc3c2=O)CC1 [Example I-197, 1-(7-Chloro-4-oxo-1-phenyl-1,4-dihydro-quinolin-3-ylmethyl)-3-(1-methanesulfonyl-piperidin-4-yl)-urea]"
17,2200,"CC(=O)N1CCC(NC(=O)NCc2cn(-c3ccccc3)c3cc(Cl)ccc3c2=O)CC1 [Example I-198, 1-(1-Acetyl-piperidin-4-yl)-3-(7-chloro-4-oxo-1-phenyl-1,4-dihydro-quinolin-3-ylmethyl)-urea]"
18,1600,"CS(=O)(=O)C1CCN(C(=O)N2CCC(NC(=O)NCc3cn(-c4ccccc4)c4cc(Cl)ccc4c3=O)CC2)CC1 [Example I-199, 1-(7-Chloro-4-oxo-1-phenyl-1,4-dihydro-quinolin-3-ylmethyl)-3-[1-(4-methanesulfonyl-piperidine-1-carbonyl)-piperidin-4-yl]-urea]"
